# Experimental data from US20020035061A1, “COMPOSITIONS AND METHODS FOR TREATING INFECTIONS USING CATIONIC PEPTIDES ALONE OR IN COMBINATION WITH ANTIBIOTICS” (priority 1996, published 2002).
# Like-named read-outs stand apart in the source and are kept apart here. Peptide text beside a SMILES is read from it.
# What was measured:
# Assay in all cases: microbe, parasite or virus in culture
# Type in all cases: cell-based
# [1] = test system: bacterial isolates; details: for FIC: peptide + Ciprofloxacin
# [2] = test system: microorganisms with acquired resistance; details: for Peptide MIC Alone: Ciprofloxacin section
# [3] = test system: S. aureus
# [4] = test system: inherently resistant microorganisms
smiles,measurement,setting,value
CC[C@H](C)[C@H](NC(=O)[C@H](CC(C)C)NC(=O)[C@H](C)NC(=O)[C@@H]1CCCN1C(=O)[C@H](CC(C)C)NC(=O)[C@H](C)NC(=O)[C@@H](NC(=O)[C@@H](NC(=O)[C@@H](NC(=O)[C@@H](NC(=O)[C@H](CCCCN)NC(=O)[C@H](CCCCN)NC(=O)[C@H](CC(C)C)NC(=O)[C@@H](NC(=O)[C@H](CCCCN)NC(=O)[C@@H](NC(=O)[C@H](CC(C)C)NC(=O)[C@H](CC(N)=O)NC(=O)[C@H](CCCCN)NC(=O)[C@@H](NC(=O)[C@H](Cc1ccccc1)NC(=O)[C@H](CO)NC(=O)[C@H](CCCCN)NC(=O)[C@H](Cc1c[nH]c2ccccc12)NC(=O)[C@@H](N)CCCCN)[C@@H](C)CC)[C@@H](C)O)C(C)C)C(C)C)C(C)C)[C@@H](C)O)[C@@H](C)O)C(=O)N[C@@H](CO)C(=O)O [MBI 29A2] (H-KWKSFIKNLTKVLKKVVTTALPALIS-OH; N-terminus and C-terminus assumed),Ciprofloxacin MIC + Peptide,[1]; P. aeruginosa PA24,16 µg/mL
same,Peptide MIC + Ciprofloxacin,[1]; P. aeruginosa PA24,8 µg/mL
same,Ciprofloxacin MIC + Peptide,[1]; S. aureus SA10,0.5 µg/mL
same,Peptide MIC + Ciprofloxacin,[1]; S. aureus SA10,2 µg/mL
same,Ciprofloxacin MIC + Peptide,[1]; S. aureus SA93,8 µg/mL
same,Peptide MIC + Ciprofloxacin,[1]; S. aureus SA93,0.5 µg/mL
same,FIC,[1]; P. aeruginosa PA24,0.63
same,FIC,[1]; S. aureus SA10,0.52
same,FIC,[1]; S. aureus SA93,0.50
same,Ciprofloxacin MIC + Peptide,[2]; P. aeruginosa PA41,2 µg/mL
same,Peptide MIC + Ciprofloxacin,[2]; P. aeruginosa PA41,4 µg/mL
same,Peptide MIC Alone,[2]; P. aeruginosa PA41,8 µg/mL
same,Ciprofloxacin MIC + Peptide,[2]; P. aeruginosa PA77,1 µg/mL
same,Peptide MIC + Ciprofloxacin,[2]; P. aeruginosa PA77,8 µg/mL
same,Peptide MIC Alone,[2]; P. aeruginosa PA77,16 µg/mL
same,Ciprofloxacin MIC + Peptide,[3]; S. aureus SA10,0.5 µg/mL
same,Peptide MIC + Ciprofloxacin,[3]; S. aureus SA10,2 µg/mL
same,Ciprofloxacin MIC + Peptide,[3]; S. aureus SA25,0.5 µg/mL
same,Peptide MIC + Ciprofloxacin,[3]; S. aureus SA25,1 µg/mL
C/C(=C\C(=O)OCCCCCCCCC(=O)O)C[C@@H]1OC[C@H](C[C@@H]2O[C@H]2[C@@H](C)[C@H](C)O)[C@@H](O)[C@H]1O [Mupirocin],MIC,"[1]; Escherichia coli, read-out: Mupirocin MIC Alone, E. coli ECO1",> 100 µg/mL
same,MIC,"[1]; Escherichia coli, read-out: Mupirocin MIC Alone, E. coli ECO2",100 µg/mL
same,MIC,"[1]; Escherichia coli, read-out: Mupirocin MIC Alone, E. coli ECO3",100 µg/mL
same,MIC,"[1]; Escherichia coli, read-out: Mupirocin MIC Alone, E. coli ECO5",100 µg/mL
same,MIC,"[1]; Escherichia coli, read-out: Mupirocin MIC Alone, E. coli SBECO1",100 µg/mL
same,MIC,"[1]; Escherichia coli, read-out: Mupirocin MIC Alone, E. coli SBECO2",> 100 µg/mL
same,MIC,"[1]; Pseudomonas aeruginosa, read-out: Mupirocin MIC Alone, P. aeruginosa PA2",> 100 µg/mL
same,MIC,"[1]; Pseudomonas aeruginosa, read-out: Mupirocin MIC Alone, P. aeruginosa PA3",> 100 µg/mL
same,MIC,"[1]; Pseudomonas aeruginosa, read-out: Mupirocin MIC Alone, P. aeruginosa PA4",> 100 µg/mL
same,MIC,"[1]; Pseudomonas aeruginosa, read-out: Mupirocin MIC Alone, P. aeruginosa SBPA1",> 100 µg/mL
same,MIC,"[1]; Serratia marcescens, read-out: Mupirocin MIC Alone, S. marcescens SBSM1",> 100 µg/mL
same,MIC,"[1]; Serratia marcescens, read-out: Mupirocin MIC Alone, S. marcescens SBSM2",> 100 µg/mL
same,MIC,"[1]; Staphylococcus aureus, read-out: Mupirocin MIC Alone, S. aureus SBSA3",100 µg/mL
same,MIC,"[1]; Staphylococcus aureus, read-out: Mupirocin MIC Alone, S. aureus SBSA4",> 100 µg/mL
same,MIC,"[4]; Escherichia coli, read-out: Mupirocin MIC Alone, E. coli",100 µg/mL
same,MIC,"[4]; Pseudomonas aeruginosa, read-out: Mupirocin MIC + Peptide, P. aeruginosa, peptide MBI 28",3 µg/mL
same,MIC,"[4]; Pseudomonas aeruginosa, read-out: Mupirocin MIC + Peptide, P. aeruginosa, peptide MBI 29A3",0.1 µg/mL
same,MIC,"[4]; Pseudomonas aeruginosa, read-out: Mupirocin MIC Alone, P. aeruginosa",> 100 µg/mL
same,MIC,"[4]; read-out: Mupirocin MIC + Peptide, E. coli, peptide MBI 11B4CN",3 µg/mL
same,MIC,"[4]; read-out: Mupirocin MIC + Peptide, E. coli, peptide MBI 11D18CN",1 µg/mL
same,MIC,"[4]; read-out: Mupirocin MIC + Peptide, E. coli, peptide MBI 21A1",3 µg/mL
same,MIC,"[4]; read-out: Mupirocin MIC + Peptide, E. coli, peptide MBI 26",3 µg/mL
same,MIC,"[4]; read-out: Mupirocin MIC + Peptide, E. coli, peptide MBI 28",0.1 µg/mL
same,MIC comb. (antibiotic agent),"[2]; E. faecium, with MBI 11CN",0.1 µg/mL
same,MIC comb. (antibiotic agent),"[2]; E. faecium, with MBI 11G13CN",0.1 µg/mL
same,MIC,"[2]; Enterococcus faecium, read-out: MIC alone (antibiotic agent), E. faecium",100 µg/mL
same,MIC comb. (antibiotic agent),"[2]; S. aureus, with MBI 11A1CN",1 µg/mL
same,MIC comb. (antibiotic agent),"[2]; S. aureus, with MBI 11CN",0.1 µg/mL
same,MIC comb. (antibiotic agent),"[2]; S. aureus, with MBI 11D18CN",0.1 µg/mL
same,MIC comb. (antibiotic agent),"[2]; S. aureus, with MBI 11F1CN",3 µg/mL
same,MIC comb. (antibiotic agent),"[2]; S. aureus, with MBI 21A1",0.1 µg/mL
same,MIC comb. (antibiotic agent),"[2]; S. aureus, with MBI 21A2",0.1 µg/mL
same,MIC comb. (antibiotic agent),"[2]; S. aureus, with MBI 21A10",0.3 µg/mL
same,MIC comb. (antibiotic agent),"[2]; S. aureus, with MBI 26",0.1 µg/mL
same,MIC comb. (antibiotic agent),"[2]; S. aureus, with MBI 29A3",0.1 µg/mL
same,MIC,"[2]; Staphylococcus aureus, read-out: MIC alone (antibiotic agent), S. aureus",> 100 µg/mL
same,MIC,"[3]; Staphylococcus aureus, S. aureus SBSA4, read-out: Mupirocin MIC Alone",> 100 µg/mL
